The source of these data is PubChem BioAssay (NCI).

Molecules are shown by their SMILES. Where “and” joins values, the source holds several entries; their conditions need not be identical. Equal entries are not always repeated.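 Values below derive from 48-hour exposures of cells grown in 96-well plates, with endpoints linearly interpolated between the two concentrations bracketing the appropriate inhibition level. The concentration for 50% growth inhibition is given as GI50. TGI denotes the concentration required for complete inhibition of growth.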

Some test systems named below: A498 renal; ACHN renal; HCT-116 colon; HS 578T breast; MCF7 breast; RXF 393 renal; SK-MEL-2 melanoma; SK-MEL-5 melanoma; SK-OV-3 ovarian; SW-620 colon.
What all share (test): NCI-60 cell line screen, 48 h

Take `CC1(C)CCc2c(c(N=Nc3ccccc3F)c3ccccc3c2O)O1`: the GI50 in the assay on A498 renal is 25.9 µM; with ACHN renal, 22 µM; in the assay on HCT-116 colon, 27.7 µM; with HS 578T breast, 28.6 µM; in the assay on MCF7 breast it was over 100 µM; in the assay on RXF 393 renal it was 79 µM. In addition, the GI50 was over 100 µM with SK-MEL-2 melanoma, 52.6 µM with SK-MEL-5 melanoma, 25.7 µM with SK-OV-3 ovarian and 32.8 µM in the assay on SW-620 colon. For the same compound, the TGI in the assay on A498 renal was over 100 µM; in the assay with ACHN renal, 52.5 µM; in the assay with HCT-116 colon, over 100 µM; in the assay on HS 578T breast, 99.7 µM; with MCF7 breast, over 100 µM; in the assay on RXF 393 renal, over 100 µM. For the same compound, the TGI with SK-MEL-2 melanoma was over 100 µM; with SK-MEL-5 melanoma it was over 100 µM; with SK-OV-3 ovarian, 75.9 µM; in the assay with SW-620 colon it was over 100 µM.

On to `CC1OC(CC(=O)O)Cc2c1c(O)c1c(O)cc(-c3cc(=O)c4c(=O)c5c(c(=O)c=4c3=O)CC(CC(=O)O)OC5C)c(O)c1c2O` (stereo not drawn), for which the TGI in the assay with A498 renal was 58.9 µM; in the assay on ACHN renal, over 81 µM; in the assay on HCT-116 colon, 27.2 µM; in the assay with RXF 393 renal, 20.3 µM and 27 µM; in the assay with SK-MEL-2 melanoma, 48.2 µM and 62.5 µM; with SK-MEL-5 melanoma, 31.9 µM. Besides, the TGI is over 100 µM in the assay with SK-OV-3 ovarian and 22.5 µM in the assay on SW-620 colon. Moreover, the GI50 with ACHN renal is 43.3 µM; in the assay on HCT-116 colon it was 30.4 µM; with HS 578T breast, 38.3 µM; in the assay on MCF7 breast it was 27.7 µM; in the assay on RXF 393 renal, 12 µM; in the assay with SK-MEL-2 melanoma, 27.7 µM. The figures for the GI50 with SK-MEL-5 melanoma, in the assay with SK-OV-3 ovarian and in the assay with SW-620 colon were 60.9 µM, 48.8 µM and 22 µM, respectively.

In the case of `COc1cc2c(cc1O)c(=O)n(CCN(C)C)c1c3cc4c(cc3ncc21)OCO4`, the GI50 in the assay on A498 renal was 0.0234 µM; in the assay on ACHN renal, under 0.01 µM; with HCT-116 colon, 0.0117 µM; in the assay with HS 578T breast it was 0.366 µM; in the assay on MCF7 breast, under 0.01 µM; in the assay on RXF 393 renal it was 0.0318 µM. In addition, the GI50 was 0.136 µM with SK-MEL-2 melanoma, 0.0121 µM in the assay on SK-MEL-5 melanoma, under 0.0106 µM in the assay with SK-OV-3 ovarian and under 0.01 µM with SW-620 colon. For the same compound, the TGI was determined as 0.0882 µM in the assay with A498 renal; 0.0464 µM in the assay with ACHN renal; 1.25 µM in the assay on HCT-116 colon; 26.1 µM with HS 578T breast; 1.62 µM with MCF7 breast; 0.116 µM with RXF 393 renal. Besides, the TGI was 0.36 µM in the assay on SK-MEL-2 melanoma, 0.0312 µM in the assay with SK-MEL-5 melanoma, 0.0876 µM with SK-OV-3 ovarian and over 33.2 µM in the assay on SW-620 colon.

On to `COc1cc2c(/C=C3/C(=O)Nc4ccc(O)cc43)c(Cl)n(Cc3cc(OC)c(OC)c(OC)c3)c2cc1C`, for which the GI50 with A498 renal was 3.09 µM; with ACHN renal, 3.43 µM; in the assay on HCT-116 colon it was 2.18 µM; in the assay with HS 578T breast, 2.37 µM; in the assay with MCF7 breast, 0.776 µM; in the assay on RXF 393 renal it was 1.37 µM. The GI50 in the assay with SK-MEL-2 melanoma is 1.93 µM; with SK-MEL-5 melanoma, 1.02 µM; in the assay with SK-OV-3 ovarian it was 4.06 µM; in the assay with SW-620 colon, 3.28 µM. In addition, the TGI with A498 renal was over 30.2 µM; with ACHN renal it was over 100 µM; in the assay with HCT-116 colon, over 33.2 µM; with HS 578T breast it was over 30.5 µM; with MCF7 breast, 19.7 µM; with RXF 393 renal it was 6.4 µM. Besides, the TGI in the assay on SK-MEL-2 melanoma is 13.7 µM; with SK-MEL-5 melanoma, 2.71 µM; with SK-OV-3 ovarian, over 75 µM; with SW-620 colon, over 100 µM.

In the case of `COc1ccc(CNCCCN2C(=O)c3ccc4c5c(ccc(c35)C2=O)C(=O)N(CCCNCc2ccc(OC)c(OC)c2OC)C4=O)c(OC)c1OC`, the GI50 in the assay on A498 renal was 0.61 µM; with ACHN renal it was 0.107 µM; with HCT-116 colon, 0.0773 µM; with HS 578T breast it was 0.568 µM; in the assay with MCF7 breast, 0.0811 µM; in the assay with RXF 393 renal it was 0.0823 µM. Besides, the GI50 in the assay on SK-MEL-2 melanoma was 0.0911 µM; in the assay on SK-MEL-5 melanoma, 0.0792 µM; in the assay with SK-OV-3 ovarian it was 0.264 µM; in the assay with SW-620 colon it was 0.0932 µM. In addition, the TGI amounted to 1.25 µM in the assay on A498 renal; 0.257 µM with ACHN renal; 0.169 µM in the assay on HCT-116 colon; 3.15 µM in the assay with HS 578T breast; 0.219 µM with MCF7 breast; 0.176 µM in the assay on RXF 393 renal. Besides, the TGI with SK-MEL-2 melanoma was found to be 0.191 µM; with SK-MEL-5 melanoma it was 0.147 µM; in the assay on SK-OV-3 ovarian it was 0.848 µM; with SW-620 colon it was 0.225 µM.

As for `Cc1c[nH]c(=O)n(Cc2nnc(CCC(=O)c3nc4ccccc4[nH]3)o2)c1=O`, the GI50 is 0.296 µM in the assay with A498 renal; 7.56 µM in the assay with ACHN renal; 0.251 µM in the assay with HCT-116 colon; 0.285 µM in the assay on HS 578T breast; 0.205 µM in the assay with MCF7 breast; 0.697 µM in the assay with RXF 393 renal. Moreover, the GI50 was 0.887 µM in the assay on SK-MEL-2 melanoma, 0.33 µM with SK-MEL-5 melanoma, 0.46 µM in the assay with SK-OV-3 ovarian and 0.483 µM in the assay on SW-620 colon. Besides, the TGI in the assay with A498 renal is 3.89 µM; in the assay with ACHN renal, over 100 µM; in the assay with HCT-116 colon it was over 89.8 µM; with HS 578T breast it was 2.3 µM; with MCF7 breast, over 100 µM; in the assay with RXF 393 renal, 3.83 µM. The TGI in the assay with SK-MEL-2 melanoma is over 23.9 µM; in the assay with SK-MEL-5 melanoma, 67.7 µM; with SK-OV-3 ovarian, 13.2 µM; in the assay on SW-620 colon, over 100 µM.

Regarding `Cc1ccc2[nH]c(O)c(N=Nc3ccccc3[N+](=O)[O-])c2c1`, the TGI is 34.6 µM with A498 renal; 12.2 µM in the assay on HCT-116 colon; 28.9 µM with HS 578T breast; over 100 µM in the assay on MCF7 breast; 20.8 µM in the assay with RXF 393 renal; over 100 µM in the assay with SK-MEL-2 melanoma. Further, the figures for the TGI in the assay with SK-MEL-5 melanoma, with SK-OV-3 ovarian and with SW-620 colon were over 100 µM, 14.2 µM and over 100 µM, respectively.

For the compound `COc1ccc2nc3c(cc2c1)C(=O)CC(c1ccccc1)C3` (stereo not drawn), the GI50 in the assay on A498 renal is 0.215 µM; in the assay on ACHN renal, 0.853 µM; in the assay on HCT-116 colon, 0.383 µM; in the assay on HS 578T breast it was 0.882 µM; with MCF7 breast, 3.54 µM; in the assay on SK-MEL-2 melanoma, 0.771 µM. In addition, the GI50 with SK-MEL-5 melanoma was 0.979 µM; in the assay with SK-OV-3 ovarian, 2.09 µM; in the assay on SW-620 colon it was 0.727 µM. Besides, the TGI is 1.18 µM in the assay on A498 renal; over 100 µM in the assay with ACHN renal; over 100 µM in the assay with HCT-116 colon; over 100 µM with HS 578T breast; over 100 µM in the assay on MCF7 breast; over 100 µM in the assay on SK-MEL-2 melanoma. Moreover, the TGI in the assay on SK-MEL-5 melanoma was 44.5 µM; in the assay with SK-OV-3 ovarian, over 100 µM; in the assay on SW-620 colon, over 100 µM.

Consider `NNc1nc2ccccc2o1`, for which the TGI with A498 renal, with ACHN renal, in the assay with HCT-116 colon, in the assay on HS 578T breast, in the assay on MCF7 breast and with RXF 393 renal was over 100 µM each time. Moreover, the TGI in the assay with SK-MEL-2 melanoma, in the assay with SK-MEL-5 melanoma and in the assay with SW-620 colon was over 100 µM in each case.

Turning to `CCN1C(=O)N(CC)C2C1NN=c1s/c(=C\c3ccc(C(F)(F)F)cc3)c(=O)n12` (stereo not drawn), the GI50 in the assay on A498 renal is 0.164 µM; in the assay on ACHN renal, 0.808 µM; with HCT-116 colon, 0.343 µM; with HS 578T breast, 0.349 µM; in the assay on MCF7 breast, 0.338 µM; with SK-MEL-2 melanoma it was 0.859 µM. The GI50 in the assay with SK-MEL-5 melanoma was 0.488 µM; in the assay with SK-OV-3 ovarian it was 0.492 µM; with SW-620 colon it was 0.406 µM. In addition, the TGI in the assay on A498 renal was 0.719 µM; in the assay on ACHN renal it was 30.5 µM; in the assay with HCT-116 colon it was over 32.8 µM; with HS 578T breast, over 42.5 µM; in the assay on MCF7 breast, over 40 µM; with SK-MEL-2 melanoma, over 52.3 µM. The TGI was 2.63 µM with SK-MEL-5 melanoma, over 100 µM with SK-OV-3 ovarian and over 42.2 µM in the assay with SW-620 colon.

For `O=C(Nc1ccccc1Cl)c1ccc(NC2=C(Cl)C(=O)N(C3CCCCC3)C2=O)cc1`, the GI50 in the assay with A498 renal was 40.6 µM; with ACHN renal, 10.6 µM; in the assay with HCT-116 colon it was 5.51 µM; in the assay on HS 578T breast, 6.75 µM; in the assay with MCF7 breast it was 9.82 µM; with SK-MEL-2 melanoma, 16.7 µM. In addition, the GI50 is 11.5 µM in the assay on SK-MEL-5 melanoma, 27.1 µM with SK-OV-3 ovarian and 10.3 µM in the assay with SW-620 colon. In addition, the TGI in the assay with A498 renal is 157 µM; in the assay on ACHN renal it was 30.4 µM; in the assay with HCT-116 colon, 36.1 µM; with HS 578T breast, 133 µM; in the assay on MCF7 breast, 36 µM; with SK-MEL-2 melanoma it was 44.1 µM. The TGI came to 40.3 µM in the assay on SK-MEL-5 melanoma, 65.2 µM in the assay on SK-OV-3 ovarian and 30.2 µM in the assay with SW-620 colon.

On to `O=C(c1ccc2ccccc2c1)c1c(C(F)(F)F)n([O-])c2cc(C(F)(F)F)ccc2[n+]1=O`, for which the GI50 was 1.5 µM in the assay on ACHN renal; 1.41 µM with HCT-116 colon; 1.63 µM with MCF7 breast; 1.5 µM with RXF 393 renal; 2.02 µM with SK-MEL-2 melanoma; 8.14 µM with SK-MEL-5 melanoma. Moreover, the GI50 in the assay with SK-OV-3 ovarian is 1.79 µM. The TGI in the assay on ACHN renal is 2.88 µM; with HCT-116 colon it was 2.78 µM; with HS 578T breast it was over 22.2 µM; with MCF7 breast it was 3.49 µM; in the assay on RXF 393 renal it was 3.16 µM; in the assay with SK-MEL-2 melanoma, 3.86 µM. In the assay on SK-OV-3 ovarian, the TGI is 3.23 µM.
